Measurements: article PMC9025336 (Antibiotics, 2022)
In brackets after ≈: the same amount, converted by molar mass. Where two headings read alike, the source gives them in different places. Peptide text beside a SMILES is read from it. * marks the point of attachment. Orn(α-tetramethylguanidino) = CN(C)C(=N[C@@H](CCCN)C(=O)*)N(C)C

Key:
[1] = E. coli Rosetta pLysS lysate, protein ~0.5 g/L; 37 °C; RP-HPLC UV 214 nm
Method: (§3) Peptides (7.5 µg) were mixed with lysates of E. coli Rosetta pLysS or E. coli BW25113 (protein concentration ~0.5 g/L) and incubated on an orbital shaker (37 °C, 750 rpm). After 0, 4, 8 and 24 h, aliquots were taken in duplicate or triplicate, and trichloroacetic acid was added to achieve a final concentration of 3% (v/v). Samples were incubated on ice (10 min) and centrifuged (13,000× g, 5 min). The supernatant was neutralized with aqueous sodium hydroxide (1 mol/L) and stored at −20 °C. Samples were separated on an ACQUITY arc system (Waters GmbH, Eschborn, Germany) using a Jupiter C18 column (ID: 2 mm). Elution was achieved using a linear aqueous acetonitrile gradient containing 0.1% (v/v) formic acid. The absorbance was recorded on a 2489 UV/VIS detector at 214 nm (Waters GmbH), and mass spectra were acquired online with an ion trap mass spectrometer equipped with an electrospray ionization source (ESI-IT-MS, Esquire HCT, Bruker Daltonics, Billerica, MA, USA). Peptide recoveries and the corresponding metabolites were calculated based on the peak areas (UV) of the initial peptide peak area at 0 min.

in vitro = conditions: E. coli BW25113 lysate
Method: as §3

[2] = test system: 70S ribosome, ribosomal binding site of Api88; experiment: Fluorescence polarization competition with cf-Api88; set-up: species or system Escherichia coli; conditions: Figure S3, twice in triplicate
Method: Ki was determined for ribosome extracts using cf-labeled and unlabeled peptides in ribosome preparation buffer. Black 384-well plates were prepared as described above. Unlabeled peptides or antibiotics (20 µL, 656 µmol/L) were added and 2-fold serially diluted in 23 wells in ribosome preparation buffer. A ribosome solution was prepared by adjusting the ribosome concentration to ~90% of the upper Kd plateau obtained for the cf-labeled peptide to be studied and added to each well (10 µL). After incubation (28 ± 1 °C, 90 min), the cf-labeled peptide (10 µL, 80 nmol/L) was added and incubated (28 ± 1 °C, 90 min). The fluorescence polarization was measured on a […] microplate reader in the top read position (λexc = 485 nm, λem = 535 nm) in triplicate on at least two different days. Data were fitted to a nonlinear, dose–response logistical transition equation [y= y0 + a/(1 + (x/x0)b)] using the Levenberg–Marquardt algorithm, with the half-maximal inhibition constants (IC50) represented by the x0 coefficients (GraphPad Prism for Windows v. 5.02, San Diego, CA, USA). Inhibition constants, Ki, were calculated as described by Mathias and Jung.
Pept ide Concent r at ion [ nM]
Figure S3. Fluorescence polarization assay testing Api88 an d Api137 in competition with cf-Api88 and cf-Api137, respectively, for the corresponding ribosomal binding sites. Experiments were done twice in triplicates. […]

[3] = test system: E. coli BL21 (DE3) RIL ribosome extract; conditions: values published for E. coli BL21 (DE3) RIL ribosome extract; read-out: Ki, cf-Api137; cited from earlier work
[4] = test system: E. coli BL21 (DE3) RIL ribosome extract; conditions: values published for E. coli BL21 (DE3) RIL ribosome extract; read-out: Ki, cf-Onc112; cited from earlier work
Text: Table 2 Antibacterial activities, dissociation (Kd), and inhibition constants (Ki) of ribosome binding obtained for all PrAMPs included in the current study for E. coli strains BW25113 (BW) and Rosetta DE3 pLysS (Ros). | column: Ki [µmol/L] *** / cf-Onc112

[5] = test system: E. coli BL21 (DE3) sbmA::Tn10^Cm + psbmA_A31G/G219T; format: cell-based, Escherichia coli
Method: (§1) The minimal inhibitory concentrations (MIC) were determined at least twice in triplicate using a liquid broth microdilution assay in sterile 96-well plates and a total volume of 100 μL per well. Aqueous peptide solutions were serially 2-fold diluted in 25% MHBII or 33% TSB medium in a volume of 50 µL. An overnight culture was diluted in 25% MHBII or 33% TSB medium to 1.5 × 10^7 CFU/mL, and an aliquot of 50 μL was added to each well. The final cell count in each well was 7.5 × 10^6 CFU/mL. The plates were incubated at 37 °C for 20 ± 2 h. The turbidity of each well was measured at a wavelength of 600 nm. The MIC was defined as the lowest peptide concentration where the turbidity was identical to medium only.
(§2) E. coli strain BL21(DE3) was randomly mutagenized by Tn10 insertion using the lambda phage lysate λNK1324 carrying a chloramphenicol resistance and grown on LB agar plates in the presence of chloramphenicol (15 µg/mL) at 30 °C overnight. The resistant colonies were transferred to 25% MHBII agar plates containing Api137 (32 or 64 µg/mL) and incubated again at 37 °C overnight. Genomic DNA was isolated by a Monarch® Genomic DNA purification kit (New England Biolabs, Frankfurt am Main, Germany) from the presumed double-resistant strains, and the sequences flanking the transposon insertion were determined by arbitrary primed PCR using arbitrary primer ARB6 and Tn10 transposon-specific primer IS10-R complementary to the IS10 element of Tn10 transposon. The first round of amplification included six cycles of denaturation (95 °C, 30 s), annealing (30 °C, 30 s), and extension (72 °C, 90 s), followed by 30 cycles of denaturation (95 °C, 30 s), annealing (45°C, 30 s), and extension (72 °C, 2 min), as well as a final extension (72 °C, 6 min). The second round of amplification used arbitrary primer ARB2 and primer IS10-R. The PCR consisted of 30 cycles of denaturation (95 °C, 30 s), annealing (52 °C, 30 s), and extension (72 °C, 2 min), followed by a final extension step (72 °C, 6 min). PCR products were purified with the NucleoSpin® Gel and a PCR cleanup kit (Macherey-Nagel, Düren, Germany) and sequenced using primer IS10-R (Eurofins MWG Operon, Ebersberg, Germany), and the corresponding protein was identified in a sequence database (UniProt and NCBI, 2021).

[6] = test system: E. coli BL21 (DE3) sbmA::Tn10^Cm + psbmA; format: cell-based, Escherichia coli
Method: as §1, §2

[7] = test system: E. coli BW25113 ΔsbmA +psbmA; format: cell-based, Escherichia coli
Method: as §1

E. coli BW25113 ΔsbmA = format: cell-based, Escherichia coli
Method: as §1

[8] = 25% MHBII containing IPTG (0.1 mmol/L)
[9] = 33% TSB containing IPTG (0.1 mmol/L)

CC[C@H](C)[C@H](NC(=O)[C@@H]1CCCN1C(=O)[C@H](CCCNC(=N)N)NC(=O)[C@H](CC(N)=O)NC(=O)[C@H](CC(N)=O)NC(=O)CN)C(=O)N[C@@H](Cc1ccc(O)cc1)C(=O)N[C@H](C(=O)N1CCC[C@H]1C(=O)N[C@@H](CCCNC(=N)N)C(=O)N1CCC[C@H]1C(=O)N[C@@H](CCCNC(=N)N)C(=O)N1CCC[C@H]1C(=O)N1CCC[C@H]1C(=O)N[C@@H](Cc1c[nH]cn1)C(=O)N1CCC[C@H]1C(=O)N[C@@H](CCCNC(=N)N)C(=O)N1CCC[C@H]1C(=O)N[C@H](C(=O)N[C@@H](CCCNC(=N)N)C(=O)N[C@H](C(=O)O)C(C)C)[C@@H](C)CC)[C@@H](C)CC [Api805] (H-GNNRPIYIPRPRPPHPRPIRV-OH; N-terminus assumed)
half-life time in lysate [1]: > 24 h
half-life (in vitro): > 24 h

CC[C@H](C)[C@H](NC(=O)[C@H](Cc1ccc(O)cc1)NC(=O)[C@@H](NC(=O)[C@@H]1CCCN1C(=O)[C@H](CCCNC(=N)N)NC(=O)[C@H](CC(N)=O)NC(=O)[C@H](CC(N)=O)NC(=O)[C@H](CCCN)N=C(N(C)C)N(C)C)C(C)C)C(=O)N1CCC[C@H]1C(=O)N[C@@H](CCCNC(=N)N)C(=O)N1CCC[C@H]1C(=O)N[C@@H](CCCNC(=N)N)C(=O)N1CCC[C@H]1C(=O)N1CCC[C@H]1C(=O)N[C@@H](Cc1c[nH]cn1)C(=O)N1CCC[C@H]1C(=O)N[C@@H](CCCNC(=N)N)C(=O)N[C@@H](CC(C)C)C(N)=O [Api88] ({Orn(α-tetramethylguanidino)}-NNRPVYIPRPRPPHPRL-NH2)
inhibition of the binding of cf-labeled Api88 [2]: did not inhibit
Ki [3]: 180 nM
Ki [4]: 110 nM

CC[C@H](C)[C@H](NC(=O)[C@H](Cc1ccc(O)cc1)NC(=O)[C@@H](NC(=O)[C@@H]1CCCN1C(=O)[C@H](CCCNC(=N)N)NC(=O)[C@H](CC(N)=O)NC(=O)[C@H](CC(N)=O)NC(=O)[C@H](CCCN)N=C(N(C)C)N(C)C)C(C)C)C(=O)N1CCC[C@H]1C(=O)N[C@@H](CCCNC(=N)N)C(=O)N1CCC[C@H]1C(=O)N[C@@H](CCCNC(=N)N)C(=O)N1CCC[C@H]1C(=O)N1CCC[C@H]1C(=O)N[C@@H](Cc1c[nH]cn1)C(=O)N1CCC[C@H]1C(=O)N[C@@H](CCCNC(=N)N)C(=O)N[C@@H](CC(C)C)C(=O)O [Api137] ({Orn(α-tetramethylguanidino)}-NNRPVYIPRPRPPHPRL-OH)
MIC, 25% MHBII [5, 8]: 4 µg/mL (≈ 1.75 µM)
MIC, 33% TSB [5, 9]: 8 µg/mL (≈ 3.49 µM)
MIC, 25% MHBII [6, 8]: 8 µg/mL (≈ 3.49 µM)
MIC, 33% TSB [6, 9]: 8 µg/mL (≈ 3.49 µM)
MIC, 25% MHBII [7, 8]: 4 µg/mL (≈ 1.75 µM)
MIC, 33% TSB [7, 9]: 8 µg/mL (≈ 3.49 µM)
MIC, 25% MHBII (E. coli BW25113 ΔsbmA; [8]): 8 µg/mL (≈ 3.49 µM)
MIC, 33% TSB (E. coli BW25113 ΔsbmA; [9]): 64 µg/mL (≈ 27.9 µM)
